Measured values reported in PMC6151456, “Screening a Natural Product-Based Library against Kinetoplastid Parasites” (Molecules : A Journal of Synthetic Chemistry and Natural …, 2017).
Counter-ions that a name gives are not always drawn. Like-named read-outs stand apart in the source and are kept apart here.

Key:
[1] = test system: malaria infection; parameters: method as in PMID 25490858; details: mouse, oral administration; cited from earlier work
[2] = test system: 3T3 host cells; experiment: 3T3 host cell cytotoxicity (selectivity); type: cell-based, mouse; details: relative to T. cruzi
Method: (§1) Primary screening against T. b. brucei was undertaken at 5 µM and for T. cruzi at 10 µM final concentrations.
(§2) The efficacy of compounds against T. cruzi was undertaken using a phenotypic, high-throughput image-based assay as previously described.

[3] = test system: P. falciparum (Dd2); details: read-out: IC50, multi-drug resistant (Dd2) P. falciparum; cited from earlier work
[4] = test system: T. b. brucei bloodstream form strain 427; experiment: T. b. brucei resazurin viability assay; type: cell-based, Trypanosoma brucei brucei; details: for IC50: Trypanosoma brucei, n = 2, 14 point dose response, top 20 µM, read-out: IC50 (mean ± SD), T. b. brucei
Method: (§3) For the primary screen, compounds were prepared as a stock concentration of 5 mM in 100% DMSO and tested in duplicate points for two independent experiments (n = 2) at final assay concentrations of 20 µM and 16.7 µM for the L. donovani intracellular amastigote and promastigote viability assays, respectively. Primary screening against T. b. brucei was undertaken at 5 µM and for T. cruzi at 10 µM final concentrations. […] These compounds were then retested in a 14 point format to determine the IC50 value against the parasite, and against HEK-293, THP-1 and 3T3 cells to determine the selectivity to the parasite. […] A top dose of 20 µM was used in the T. b. brucei assay and 18.3 µM for T.cruzi assay, in 14 point dose repsonse curves as described.
The efficacy of compounds against T. b. brucei bloodstream form was evaluated using a resazurin-based assay, previously described in the literature.

[5] = test system: P. falciparum (3D7); details: read-out: IC50, chloroquine-sensitive (3D7) P. falciparum; cited from earlier work
[6] = test system: HEK-293 cells; experiment: HEK-293 resazurin viability assay (cytotoxicity, selectivity); type: cell-based, human
Method: as §1
Cytotoxicity testing was undertaken as previously described.

[7] = test system: T. cruzi intracellular amastigotes; experiment: T. cruzi intracellular amastigote image-based assay; type: cell-based, Trypanosoma cruzi; details: for IC50: Trypanosoma cruzi, intracellular amastigotes, n = 2, top 18.3 µM, read-out: IC50 (mean ± SD), T. cruzi
Method: as §3, §2

[8] = test system: T. cruzi; parameters: method as in PMID 25033456; details: cited from earlier work
[9] = test system: L. donovani DD8 promastigotes; experiment: L. donovani DD8 promastigote viability assay (resazurin); type: cell-based, Leishmania donovani; details: Leishmania donovani; at 16.7 µM
Method: as §3
This assay was established to assess the activity of the compound library on the extracellular form of the parasites. An initial cell density of 1 × 10^5 parasites/mL was inoculated into a 75 cm^2 flask (in a total of 30 mL of M199 medium + 10% (v/v) HIFBS) and incubated at 27 °C. After 96 h the parasites reached the mid-log phase and were seeded in black, clear bottom 384-well plates (Greiner-bio-one®, Monroe, UT, USA) at a concentration of 5 × 10^5 parasites/mL in a volume of 55 µL using a Bravo automated liquid handling platform (Agilent, Santa Clara, CA, USA). Compound stocks were diluted 1:25 in M199 media without HIFBS using a dilution plate (Greiner-bio-one®, Monroe, UT, USA). The compounds were dispensed in 5 µL using a Bravo and parasites incubated for an additional 68 h at 27 °C. Resazurin (Cayman Chemicals®, Ann Arbor, MI, USA) at 0.142 mM final assay concentration was then dispensed into plates at a volume of 10 µL/well using a Multidrop™ 384 Reagent Dispenser (Thermo Scientific®, Newington, NH, USA) and incubated at 27 °C. The plates were read after 4 h on an EnVision™ Multilabel plate reader (PerkinElmer, Waltham, MA, USA) using fluorometry with an excitation of 530 nm and emission 590 nm. For the L. donovani DD8 promastigote viability assay, 1 µM of amphotericin B was used as positive control and 0.4% DMSO as negative control.

[10] = test system: 3T3 host cells; parameters: method as in PMID 25033456; details: relative to T. cruzi; cited from earlier work
[11] = test system: T. b. brucei; parameters: method as in PMID 20696141; details: cited from earlier work
[12] = test system: L. donovani DD8 intracellular amastigotes; experiment: L. donovani DD8 intracellular amastigote high content imaging assay; type: cell-based, Leishmania donovani; details: Leishmania donovani; n = 2; 14 point dose response, top 20 µM; read-out: IC50 (mean ± SD), L. donovani DD8 intracellular amastigotes
Method: as §3
A high content, high-throughput imaging assay was used to identify compounds active against L. donovani DD8 intracellular amastigotes as described previosuly.

[13] = test system: THP-1 cells; experiment: THP-1 cytotoxicity (selectivity); type: cell-based, human; details: relative to L. donovani DD8 intracellular amastigotes
Method: as §3

[14] = test system: L. donovani (MHOM/SD/62/1S-CL2D) axenic amastigotes; parameters: method as in PMID 15679330; details: strain MHOM/SD/62/1S-CL2D; cited from earlier work
[15] = test system: L. mexicana intracellular amastigotes; parameters: method as in PMID 15679330; details: at 41.89 µM; cited from earlier work
[16] = test system: T. b. brucei variant 221; details: cited from earlier work
[17] = test system: T. b. brucei; parameters: method as in PMID 18833031; details: cited from earlier work
[18] = test system: L. donovani; parameters: method as in PMID 28498323; details: cited from earlier work
[19] = test system: T. b. rhodesiense; parameters: method as in PMID 28498323; details: cited from earlier work
[20] = test system: T. cruzi; parameters: method as in PMID 28498323; details: cited from earlier work
[21] = test system: NF54 strain of Plasmodium falciparum; parameters: method as in PMID 28498323; details: read-out: IC50, P. falciparum NF54; cited from earlier work
[22] = test system: L. donovani DD8; parameters: method as in PMID 7592170; details: compared to other strains; cited from earlier work

NCCc1c[nH]c2c1C(=O)C1=C(NC=CS1(=O)=O)C2=O [Compound 3, Thiaplakortone A]
suppression of parasitemia [1]: did not suppress parasitemia
Selectivity index (SI) compared to 3T3 cells [2]: 1.06
IC50 [3]: 0.0066 µM
IC50 [4]: 3.94 ± 0.78 µM
IC50 [5]: 0.051 µM
Selectivity index (SI) compared to HEK-293 cells ([6]; relative to T. b. brucei): 0.70
Selectivity index (SI) compared to HEK-293 cells ([6]; relative to T. cruzi): 0.53
IC50 [7]: 4.26 ± 0.65 µM

OC(c1cc(C(F)(F)F)nc2c(C(F)(F)F)cccc12)C1CCCCN1 (stereo not drawn) [Compound 8, Mefloquine HCl, reference compound]
EC50 [8]: 6.1 µM
Selectivity index (SI) compared to 3T3 cells [2]: > 1.70
inhibition at 16.7 µM [9]: 100%
IC50 [4]: 0.62 ± 0.06 µM
SI to 3T3 host cells [10]: 2
Selectivity index (SI) compared to HEK-293 cells ([6]; relative to T. b. brucei): 7.97
Selectivity index (SI) compared to HEK-293 cells ([6]; relative to T. cruzi): > 5.06
IC50 [7]: 3.96 ± 0.58 µM

CC[C@H]1CN2CCc3cc(OC)c(OC)cc3[C@@H]2C[C@@H]1C[C@H]1NCCc2cc(OC)c(OC)cc21 [Compound 10, Emetine dihydrochloride, reference compound]
inhibition at 16.7 µM [9]: 100%
IC50 [11]: 7.9 µM

COc1c(C)c(O)c(C(=O)/C=C/c2ccccc2)c(O)c1C [Compound 13, (E)-1-(2,6-dihydroxy-4-methoxy-3,5-dimethylphenyl)-3-phenylprop-2-en-1-one]
IC50 [12]: 5.65 ± 0.26 µM
inhibition at 16.7 µM [9]: 100%
activity against T. b. brucei [4]: no significant activity
Selectivity index (SI) compared to THP-1 cells [13]: 3.59
IC50 [14]: 16.8 ± 4.35 µM
Selectivity index (SI) compared to HEK-293 cells ([6]; relative to L. donovani DD8 intracellular amastigotes): ~ 12
Selectivity index (SI) compared to HEK-293 cells ([6]; relative to L. donovani DD8 intracellular amastigotes, listed as Chalcone analogue (13)): 11.87
activity against T. cruzi [7]: no significant activity
reduction in infection of L. mexicana intracellular amastigotes [15]: 96 ± 2%
IC50 [16]: 21.1 ± 3.68 µM

COc1ccc2c(c[n+](C)c3c4cc5c(cc4ccc23)OCO5)c1OC [Compound 15, Chelerythrine chloride, reference compound]
IC50 [4]: 0.23 ± 0.04 µM
IC50 [17]: 1.3 µM
Selectivity index (SI) compared to HEK-293 cells ([6]; relative to T. b. brucei, listed as Chelerythrine chloride (15)): > 18.71

CCCCCCC/C=C/C=C/C(=O)NCCc1ccc(O)cc1 [dodeca-2E,4E-dienoic acid 4-hydroxy-2-phenyl-ethylamide]
IC50 [18]: 4.19 ± 1.64 µM
IC50 [19]: 2.26 ± 0.18 µM
IC50 [20]: 1.88 µM
IC50 [21]: 3.18 ± 0.2 µM

parmomycin
activity against L. donovani DD8 [22]: negligible activity
